Measured values taken from patent US7582662B2, “Body weight gain inhibitor” (Takeda Pharmaceutical Company Limited, priority 2002, dated 2009).
Structures can show the parent of a compound that is named as a salt.

Tests used:
[1] = Body weight gain of obese mouse (compound A-mixed feed, 4 days); type: in vivo, male KKA^y mice; settings: KKA^y mice, 10 week old, 0.005% compound A-mixed feed (about 6.5 mg/kg/day), mean±standard error, control 1.2±0.2 g, p<0.05
Method: Effect of 2-ethoxy-1-[[2′-(2,5-dihydro-5-oxo-1,2,4-oxadiazole-3-yl)biphenyl-4-yl]methyl]benzimidazole-7-carboxylic acid (Compound A) on Body Weight Gain of Obese Mouse
As the obese mouse, male KKA^y mice (10 week old) were used. The mice were grouped by measuring the body weight, and feeding of a CE-2 powdered feed (control)(n=7) and a 0.005% compound A-mixed feed (n=7) was started. At 4 days from feeding, the body weight was measured and the amount of the body weight gain was calculated. As the normal control, C57BL mice were used, and after feeding a CE-2 powdered feed for 4 days, whether the male KKA^y mice of the same age became obese was also examined.
The results are shown in mean±standard error. For the analysis of significance, Student's t-test was used. • 2) Results

[2] = Body weight gain induced by PPARγ agonist-like substance (pioglitazone) in obesity rats; type: in vivo, male Wistar fatty rats; settings: Wistar fatty rats, 7 days
Method: Effect of Compound a on Body Weight Gain Induced by PPARγ Agonist-Like Substance (Pioglitazone) As the obesity rats, male Wistar fatty rats (16 week old) were used. The body weights were measured and the rats were grouped, after which a suspension of a drug in 0.5% methylcellulose solution was repeatedly and forcibly administered orally once a day for 7 consecutive days. After 24 hr from the final administration, the body weight was measured and the body weight gain was calculated. […] For the analysis of significance, Student's t-test was used. • 2) Results

[3] = patients with type II diabetes; Diabetes, 47, suppl. 1, A18, No. 69, 1998; cited from earlier work

Question: Which “body weight gain during the test period” value [1] does the source give for CCOc1nc2cccc(C(=O)O)c2n1Cc1ccc(-c2ccccc2-c2nc(=O)o[nH]2)cc1 [compound A, 2-ethoxy-1-[[2′-(2,5-dihydro-5-oxo-1,2,4-oxadiazol-3-yl)biphenyl-4-yl]methyl]benzimidazole-7-carboxylic acid] here?
Answer: Its value is 0.1 ± 0.4 g.

Question: What about the “amount of body weight gain” value ([2]; compound A 1 mg/kg/day p.o. together with PPARγ agonist-like substance (pioglitazone hydrochloride) 0.5 mg/kg/day p.o., p<0.05 vs single administration group) of the same compound?
Answer: The value was 19.3 ± 2.5 g.

Question: With CCc1ccc(CCOc2ccc(CC3SC(=O)NC3=O)cc2)nc1 (stereo not shown) [pioglitazone hydrochloride] as the compound, how does the “amount of body weight gain” value ([2]; 0.5 mg/kg/day p.o. alone, mean±standard error, control 24.4±2.4 g, p<0.05) read?
Answer: Its value is 30.8 ± 1.8 g.

Question: For Cc1c(C)c2c(c(C)c1O)CCC(C)(COc1ccc(CC3SC(=O)NC3=O)cc1)O2 (stereo not shown) [troglitazone], which “effect on body weight” value [3] is on record?
Answer: Its value is “body weight gaining action”.
